“And” between values parts separate entries of the source, which are not always exact repeats. Identical values can stand only once. Toxic doses and inconclusive results are not listed. Peptide text beside a SMILES is read from it. * marks the point of attachment. Cbz = O=C(OCc1ccccc1)*; Bn = c1ccc(C*)cc1
Test system: L1210 leukemia ip in BDF1 mice, survival T/C
Assay: NCI In Vivo Anticancer Drug Screen. Data for tumor model L1210 Leukemia (intraperitoneal) in B6D2F1 (BDF1) mice
Settings: higher = longer survival
Summary of the method: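 Tumor cells were implanted, animals were treated, and survival was followed. The result divides the treated measurement by the vehicle-control measurement.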

[1] = endpoint: mean survival time, dose: 100.0 mg/kg/injection, schedule: Q01DX009 (ip), vehicle: Klucel (hydroxypropylcellulose) (HPC)
[2] = endpoint: mean survival time, dose: 50.0 mg/kg/injection, schedule: Q01DX009 (ip), vehicle: Klucel (hydroxypropylcellulose) (HPC)
[3] = endpoint: mean survival time, dose: 100.0 mg/kg/injection, schedule: Q04DX003 (ip), vehicle: Klucel (hydroxypropylcellulose) (HPC)
[4] = endpoint: mean survival time, dose: 100.0 mg/kg/injection, schedule: Q04DX003 (ip), vehicle: saline with Tween-80
[5] = endpoint: mean survival time, dose: 200.0 mg/kg/injection, schedule: Q04DX003 (ip), vehicle: saline with Tween-80
[6] = endpoint: mean survival time, dose: 400.0 mg/kg/injection, schedule: Q04DX003 (ip), vehicle: saline with Tween-80

`O=C(NC(CSCc1ccccc1)C(=O)NC(Cc1ccc(O)cc1)C(=O)O)OCc1ccccc1` (stereo not drawn) (Cbz-Cys(Bn)-Tyr-OH; configuration not given here) was tested, and the T/C (endpoint: mean survival time, dose: 100.0 mg/kg/injection, schedule: Q01DX009 (ip), vehicle: gum acacia) was 95 % of control, the T/C (endpoint: mean survival time, dose: 100.0 mg/kg/injection, schedule: Q04DX003 (ip), vehicle: gum acacia) was 103 % of control and the T/C (endpoint: mean survival time, dose: 200.0 mg/kg/injection, schedule: Q01DX009 (ip), vehicle: gum acacia) was 95 % of control. For the same molecule, the T/C (endpoint: mean survival time, dose: 200.0 mg/kg/injection, schedule: Q04DX003 (ip), vehicle: gum acacia) was 103 % of control, the T/C (endpoint: mean survival time, dose: 400.0 mg/kg/injection, schedule: Q01DX009 (ip), vehicle: gum acacia) was 89 % of control and the T/C (endpoint: mean survival time, dose: 400.0 mg/kg/injection, schedule: Q04DX003 (ip), vehicle: gum acacia) was 92 % of control.
`CCCCCCCCCCCCCCCCCCNC(=O)N(C)C1CCCCC1` was tested, and the T/C [1] was 88 % of control, the T/C (endpoint: mean survival time, dose: 200.0 mg/kg/injection, schedule: Q01DX009 (ip), vehicle: Klucel (hydroxypropylcellulose) (HPC)) was 89 % of control and the T/C (endpoint: mean survival time, dose: 400.0 mg/kg/injection, schedule: Q01DX009 (ip), vehicle: Klucel (hydroxypropylcellulose) (HPC)) was 101 % of control.
In the case of `O=C1C(c2ccc(O)cc2)C2C=CC(C2)N1O` (stereo not drawn), the T/C (endpoint: mean survival time, dose: 100.0 mg/kg/injection, schedule: Q01DX001 (ip), vehicle: saline) is reported as 95 % of control, the T/C (endpoint: mean survival time, dose: 200.0 mg/kg/injection, schedule: Q01DX001 (ip), vehicle: saline) is reported as 103 % of control and the T/C (endpoint: mean survival time, dose: 400.0 mg/kg/injection, schedule: Q01DX001 (ip), vehicle: saline) is reported as 95 % of control.
In the case of `C=CCN(CC=C)C(=S)[S-].C=CCN(CC=C)C(=S)[S-].[Zn]`, the T/C (endpoint: mean survival time, dose: 1.25 mg/kg/injection, schedule: Q01DX009 (ip), vehicle: saline) is reported as 101 % of control, the T/C (endpoint: mean survival time, dose: 2.5 mg/kg/injection, schedule: Q01DX009 (ip), vehicle: saline) is reported as 93 % of control and the T/C (endpoint: mean survival time, dose: 5.0 mg/kg/injection, schedule: Q01DX009 (ip), vehicle: saline) is reported as 87 % of control. For the same molecule, the T/C (endpoint: mean survival time, dose: 5.0 mg/kg/injection, schedule: Q04DX003 (ip), vehicle: saline) was 90 % of control, the T/C (endpoint: mean survival time, dose: 10.0 mg/kg/injection, schedule: Q01DX001 (ip), vehicle: saline) was 86 % of control and the T/C (endpoint: mean survival time, dose: 10.0 mg/kg/injection, schedule: Q04DX003 (ip), vehicle: saline) was 92 % of control. For the same molecule, the T/C (endpoint: mean survival time, dose: 20.0 mg/kg/injection, schedule: Q01DX001 (ip), vehicle: saline) was 95 % of control.
`Cc1c2c(c(C)c3ccncc13)S(=O)(=O)c1ccccc1-2` was tested, and the T/C (endpoint: mean survival time, dose: 75.0 mg/kg/injection, schedule: Q01DX001 (ip), vehicle: other) was 95 % of control, the T/C (endpoint: mean survival time, dose: 150.0 mg/kg/injection, schedule: Q01DX001 (ip), vehicle: other) was 93 % of control and the T/C (endpoint: mean survival time, dose: 300.0 mg/kg/injection, schedule: Q01DX001 (ip), vehicle: other) was 93 % of control.
In the case of `O=C(Nc1ccc(C2=NCCCN2)cc1)c1ccc(C(=O)Nc2ccc(C3=NCCCN3)cc2)nc1`, the T/C (endpoint: mean survival time, dose: 1.5 mg/kg/injection, schedule: Q01DX Z (ip), vehicle: water) is reported as 122 % of control, the T/C (endpoint: mean survival time, dose: 3.0 mg/kg/injection, schedule: Q01DX Z (ip), vehicle: water) is reported as 114 % of control and the T/C (endpoint: mean survival time, dose: 3.0 mg/kg/injection, schedule: Q01DX Z (oral), vehicle: water) is reported as 97 % of control. The T/C (endpoint: mean survival time, dose: 6.0 mg/kg/injection, schedule: Q01DX Z (ip), vehicle: water) was 172 % of control, the T/C (endpoint: mean survival time, dose: 6.25 mg/kg/injection, schedule: Q01DX Z (oral), vehicle: water) was 95 % of control and the T/C (endpoint: mean survival time, dose: 7.5 mg/kg/injection, schedule: Q01DX001 (ip), vehicle: water) was 118 % of control. The T/C (endpoint: mean survival time, dose: 12.5 mg/kg/injection, schedule: Q01DX Z (oral), vehicle: water) was 89 % of control and the T/C (endpoint: mean survival time, dose: 25.0 mg/kg/injection, schedule: Q01DX Z (oral), vehicle: water) was 91 % of control.
With `Clc1ccc(/C=N/Nc2nc3ccccc3s2)cc1Cl` the T/C (endpoint: mean survival time, dose: 40.0 mg/kg/injection, schedule: Q01DX Z (ip), vehicle: methylcellulose (MC)) was 88 % of control, the T/C (endpoint: mean survival time, dose: 60.0 mg/kg/injection, schedule: Q01DX Z (ip), vehicle: methylcellulose (MC)) was 103 % of control and the T/C (endpoint: mean survival time, dose: 90.0 mg/kg/injection, schedule: Q01DX Z (ip), vehicle: methylcellulose (MC)) was 94 % of control.
`c1ccc(C(C2=NCCN2)c2ccccc2)cc1` was tested, and the T/C (endpoint: mean survival time, dose: 25.0 mg/kg/injection, schedule: Q04DX003 (ip), vehicle: Klucel (hydroxypropylcellulose) (HPC)) was 101 % of control, the T/C [2] was 102 % of control and the T/C (endpoint: mean survival time, dose: 50.0 mg/kg/injection, schedule: Q04DX003 (ip), vehicle: Klucel (hydroxypropylcellulose) (HPC)) was 106 % of control. The T/C [1] was 91 % of control and the T/C [3] was 101 % of control and 103 % of control.
In the case of `CC(=O)OC1C(O)C(C)OC(OC2C(OC(=O)C3CCC4C(C3)OC3(CC(OC(=O)/C=C/c5ccccc5)C(C)CO3)C43CO3)OC(C)C(O)C2OC(C)=O)C1O` (stereo not drawn), the T/C (endpoint: median survival time, dose: 0.5 mg/kg/injection, schedule: Q01DX009 (ip), vehicle: distilled water + Tween-80) is reported as 92 % of control, the T/C (endpoint: median survival time, dose: 1.0 mg/kg/injection, schedule: Q01DX009 (ip), vehicle: distilled water + Tween-80) is reported as 95 % of control and the T/C (endpoint: median survival time, dose: 2.0 mg/kg/injection, schedule: Q01DX009 (ip), vehicle: distilled water + Tween-80) is reported as 95 % of control. For the same molecule, the T/C (endpoint: median survival time, dose: 4.0 mg/kg/injection, schedule: Q01DX009 (ip), vehicle: distilled water + Tween-80) was 104 % of control, the T/C (endpoint: median survival time, dose: 8.0 mg/kg/injection, schedule: Q01DX009 (ip), vehicle: distilled water + Tween-80) was 107 % of control and the T/C (endpoint: median survival time, dose: 16.0 mg/kg/injection, schedule: Q01DX009 (ip), vehicle: distilled water + Tween-80) was 115 % of control. The T/C (endpoint: median survival time, dose: 32.0 mg/kg/injection, schedule: Q01DX009 (ip), vehicle: distilled water + Tween-80) was 104 % of control.
With `O=P1(c2ccccc2)CCc2[nH]c3ccc(Br)cc3c2C1` (stereo not drawn) the T/C (endpoint: mean survival time, dose: 100.0 mg/kg/injection, schedule: Q01DX001 (ip), vehicle: Klucel (hydroxypropylcellulose) (HPC)) was 97 % of control, the T/C (endpoint: mean survival time, dose: 200.0 mg/kg/injection, schedule: Q01DX001 (ip), vehicle: Klucel (hydroxypropylcellulose) (HPC)) was 93 % of control and the T/C (endpoint: mean survival time, dose: 400.0 mg/kg/injection, schedule: Q01DX001 (ip), vehicle: Klucel (hydroxypropylcellulose) (HPC)) was 98 % of control.
In the case of `CC(=O)n1ncc2ccc([N+](=O)[O-])cc21`, the T/C (endpoint: mean survival time, dose: 100.0 mg/kg/injection, schedule: Q01DX009 (ip), vehicle: water) is reported as 105 % of control, the T/C (endpoint: mean survival time, dose: 100.0 mg/kg/injection, schedule: Q04DX003 (ip), vehicle: water) is reported as 93 % of control and the T/C (endpoint: mean survival time, dose: 200.0 mg/kg/injection, schedule: Q01DX009 (ip), vehicle: water) is reported as 105 % of control. For the same molecule, the T/C (endpoint: mean survival time, dose: 200.0 mg/kg/injection, schedule: Q04DX003 (ip), vehicle: water) was 100 % of control, the T/C (endpoint: mean survival time, dose: 400.0 mg/kg/injection, schedule: Q01DX009 (ip), vehicle: water) was 107 % of control and the T/C (endpoint: mean survival time, dose: 400.0 mg/kg/injection, schedule: Q04DX003 (ip), vehicle: water) was 96 % of control.
With `S=C1NCCCS1` the T/C (endpoint: mean survival time, dose: 12.5 mg/kg/injection, schedule: Q01DX009 (ip), vehicle: Klucel (hydroxypropylcellulose) (HPC)) was 93 % of control, the T/C (endpoint: mean survival time, dose: 25.0 mg/kg/injection, schedule: Q01DX009 (ip), vehicle: Klucel (hydroxypropylcellulose) (HPC)) was 104 % of control and the T/C [2] was 98 % of control. The T/C [1] was 101 % of control, the T/C [3] was 98 % of control and the T/C (endpoint: mean survival time, dose: 200.0 mg/kg/injection, schedule: Q04DX003 (ip), vehicle: Klucel (hydroxypropylcellulose) (HPC)) was 95 % of control. The T/C (endpoint: mean survival time, dose: 400.0 mg/kg/injection, schedule: Q04DX003 (ip), vehicle: Klucel (hydroxypropylcellulose) (HPC)) was 104 % of control.
For `NC(C(=O)O)c1ccccc1C(=O)O` (stereo not drawn), the T/C [4] was 96 % of control, the T/C [5] was 103 % of control and the T/C [6] was 103 % of control.
`c1ccc(CN2CCC(N3CCCC3)CC2)cc1` was tested, and the T/C (endpoint: mean survival time, dose: 50.0 mg/kg/injection, schedule: Q01DX009 (ip), vehicle: saline) was 101 % of control, the T/C (endpoint: mean survival time, dose: 100.0 mg/kg/injection, schedule: Q01DX009 (ip), vehicle: saline) was 95 % of control and the T/C (endpoint: mean survival time, dose: 100.0 mg/kg/injection, schedule: Q04DX003 (ip), vehicle: saline) was 109 % of control. The T/C (endpoint: mean survival time, dose: 200.0 mg/kg/injection, schedule: Q01DX009 (ip), vehicle: saline) was 94 % of control and the T/C (endpoint: mean survival time, dose: 200.0 mg/kg/injection, schedule: Q04DX003 (ip), vehicle: saline) was 101 % of control.
In the case of `CC(=O)NC(O)C(Cl)(Cl)Cl` (stereo not drawn), the T/C (endpoint: mean survival time, dose: 100.0 mg/kg/injection, schedule: Q01DX009 (ip), vehicle: saline sonified) is reported as 102 % of control, the T/C [4] is reported as 100 % of control and the T/C (endpoint: mean survival time, dose: 200.0 mg/kg/injection, schedule: Q01DX009 (ip), vehicle: saline sonified) is reported as 95 % of control. For the same molecule, the T/C [5] was 96 % of control, the T/C (endpoint: mean survival time, dose: 400.0 mg/kg/injection, schedule: Q01DX009 (ip), vehicle: saline sonified) was 93 % of control and the T/C [6] was 110 % of control.
With `C/C(=N\N=C(/C)c1ccc2cc3c(cc2c1)OCO3)c1ccc2cc3c(cc2c1)OCO3` the T/C (endpoint: mean survival time, dose: 75.0 mg/kg/injection, schedule: Q01DX001 (ip), vehicle: saline) was 97 % of control, the T/C (endpoint: mean survival time, dose: 150.0 mg/kg/injection, schedule: Q01DX001 (ip), vehicle: saline) was 92 % of control and the T/C (endpoint: mean survival time, dose: 300.0 mg/kg/injection, schedule: Q01DX001 (ip), vehicle: saline) was 89 % of control.

Source: PubChem BioAssay AID248 (DTP/NCI, 2004)
